Reference: article PMC10883907, “Phage-display reveals interaction of lipocalin allergen Can f 1 with a peptide resembling the antigen binding region of a human γδT-cell receptor” (Biological Chemistry, 2020)

Target: Can f 1 (Canis lupus, UniProt O18873)
Experiment: fluorescence titration (excitation […] nm, emission […] nm)
Type: binding

Chain of Can f 1 (O18873 19-174): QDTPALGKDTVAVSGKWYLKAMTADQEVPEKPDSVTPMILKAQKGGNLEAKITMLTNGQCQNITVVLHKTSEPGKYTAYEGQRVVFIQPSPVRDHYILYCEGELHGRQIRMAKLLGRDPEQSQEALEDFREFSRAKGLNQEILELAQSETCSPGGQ

O=S(=O)(O)c1cccc2cccc(Nc3ccccc3)c12 [ANS, 8-anilinonaphthalene-1-sulfonic acid]
Kd: 2.1 µM
